The source of these data is the supplement of paper PMC11061612.

Structures are written as SMILES.

Assay [1] deals with FU-OV-1 (Ovarian Carcinoma). Nature of the assay: Bliss excess, mean over the matrix (fraction); higher = more synergy. The procedure, abridged: (§1)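 Cell lines grown in DMEM/F12 or RPMI with 10% FBS were plated in 1536-well plates and held 24 hours at 37°C, 5% CO2 before 72 hours of exposure to two-drug dose matrices, with DMSO typically at 0.2%. CellTiter-Glo 2.0 luminescence gave viability, which was converted to inhibition. Vehicle wells were set to 0 and blank wells to 1. Combination Emax is the second-highest inhibition in the matrix, and Bliss excess is the observed combination effect minus the expected EA + EB − EA·EB, where EA and EB are the single-agent effects.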

Assay [2] relates to HCC38 (Breast Carcinoma). The assay is described as above. The procedure, abridged: as §1
Assay [3] concerns HLE (Hepatocellular Carcinoma). The assay is described as above. The procedure, abridged:
as §1

Assay [4] deals with SK-LMS-1 (Other Solid Carcinomas). The assay is described as above. The procedure, abridged:
as §1

Assay [5] deals with SNG-M (Endometrial Carcinoma). Described as above. In short, it runs like this: as §1
For assay [6], the system named is Saos-2 (Osteosarcoma). The assay is described as above. In short, it runs like this: as §1
In assay [7] the test system is BICR78 (Oral Cavity Carcinoma). Nature of the assay: combination Emax (second highest fraction inhibited in the dose matrix, 72 h); higher = more inhibition; extreme values may be limits of the assay. In short, it runs like this:
as §1

In assay [8] the test system is CAL-39 (Other Solid Carcinomas). Described as above. In short, it runs like this: as §1
For assay [9], the system named is D-283MED (Other Solid Carcinomas). The description is as above. The procedure, abridged: as §1
Assay [10] has as its system EW-22 (Ewing's Sarcoma). The assay is described as above. In short, it runs like this: as §1
In assay [11] the test system is FU-OV-1 (Ovarian Carcinoma). The description is as above. The procedure, abridged: as §1
The test system of assay [12] is H4 (Low Grade Glioma). Described as above. The procedure, abridged: as §1
For assay [13], the system named is HLE (Hepatocellular Carcinoma). The assay is described as above. In short, it runs like this:
as §1

For assay [14], the system named is MEG-01 (Chronic Myelogenous Leukemia). The description is as above. The procedure, abridged:
as §1

In assay [15] the test system is MSTO-211H (Mesothelioma). The description is as above. The procedure, abridged:
as §1

In assay [16] the test system is SK-MEL-1 (Melanoma). The assay is described as above. The procedure, abridged:
as §1

Assay [17] relates to SLVL (B-Cell Non-Hodgkin's Lymphoma). The assay is described as above. In short, it runs like this:
as §1

Assay [18] concerns SW948 (Colorectal Carcinoma). The description is as above. The procedure, abridged: as §1
Assay [19] has as its system Saos-2 (Osteosarcoma). The description is as above. The procedure, abridged:
as §1

The test system of assay [20] is YT (Other Blood Carcinomas). The description is as above. In short, it runs like this:
as §1
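For Bliss excess, mean over the matrix in this document: after 72 h of two-drug dosing.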

`CN(CCO)CC[C@H](CSc1ccccc1)Nc1ccc(S(=O)(=O)NC(=O)c2ccc(N3CCC([C@@H](O)c4ccccc4-c4ccc(Cl)cc4)CC3)cc2)cc1S(=O)(=O)C(F)(F)F` [AZD4320] + Nc1ccn([C@@H]2O[C@H](CO)[C@@H](O)C2(F)F)c(=O)n1 [Gemcitabine] (first compound max 1 µM, 7x7, partner max 0.3 µM): the Bliss excess in assay [1] is -0.0498; in [2], -0.0171; in [3] it was 0.0579; in assay [4], 0.0273; in assay [5] it was -0.0568; in [6], 0.121. In addition, the “combination Emax” value in assay [7] came to 0.63; in assay [8], 0.97; in [9], 1; in assay [10] it was 0.999; in assay [11], 0.245; in assay [12] it was 0.988. In addition, the “combination Emax” value was 0.887 in assay [13]; 0.93 in assay [14]; 0.96 in [15]; 0.649 in assay [16]; 1 in assay [17]; 0.524 in assay [18]. In addition, the “combination Emax” value in assay [19] is 0.984; in assay [20], 0.862.
`Cc1c2c(nn1C)CSCc1cc(n(C)n1)CSc1cc(c3ccccc3c1)OCCCc1c(C(=O)O)n(C)c3c-2c(Cl)ccc13` [AZD5991] + CC(=O)O[C@H]1C(=O)[C@@]2(C)[C@H]([C@H](OC(=O)c3ccccc3)[C@]3(O)C[C@H](OC(=O)[C@H](O)[C@@H](NC(=O)c4ccccc4)c4ccccc4)C(C)=C1C3(C)C)[C@]1(OC(C)=O)CO[C@@H]1C[C@@H]2O [Paclitaxel] (first compound max 1 µM, 7x7, partner max 3 µM): the Bliss excess in [1] was 0.0262; in assay [2], -0.0632; in assay [3] it was -0.0411; in [4], -0.0569; in assay [5] it was 0.0374; in [6], 0.0358. In addition, the “combination Emax” value is 0.701 in [7]; 0.994 in assay [8]; 1 in assay [9]; 0.871 in assay [10]; 0.474 in assay [11]; 0.995 in assay [12]. For the same compound, the “combination Emax” value in assay [13] came out at 0.825; in assay [14], 0.881; in [15], 0.391; in assay [16] it was 0.21; in assay [17] it was 0.954; in assay [18] it was 0.884. The “combination Emax” value worked out at 0.961 in assay [19] and 1 in assay [20].
As for `Cc1c2c(nn1C)CSCc1cc(n(C)n1)CSc1cc(c3ccccc3c1)OCCCc1c(C(=O)O)n(C)c3c-2c(Cl)ccc13` [AZD5991] + CS(=O)(=O)CCNCc1ccc(-c2ccc3ncnc(Nc4ccc(OCc5cccc(F)c5)c(Cl)c4)c3c2)o1 [Lapatinib] (first compound max 1 µM, 7x7, partner max 10 µM), the Bliss excess in [1] was -0.0179; in assay [2], -0.0638; in assay [3], 0.0311; in assay [4], -0.0101; in assay [5], -0.0254; in assay [6] it was -0.0071. Besides, the “combination Emax” value was determined as 0.445 in assay [7]; 0.998 in assay [8]; 0.986 in [9]; 0.41 in [10]; 0.42 in assay [11]; 0.484 in assay [12]. Also, the “combination Emax” value in assay [13] turned out to be 0.23; in assay [14] it was 0.557; in assay [15], 0.193; in [16] it was 0.37; in [17], 0.341; in [18] it was 0.26. Moreover, the “combination Emax” value was 0.497 in assay [19] and 1 in assay [20].
As to `C[C@@H]1COCCN1c1cc(C2([S@](C)(=N)=O)CC2)nc(-c2ccnc3[nH]ccc23)n1` [AZD6738] + C1CC(C1)(C(=O)[O-])C(=O)[O-].N.N.[Pt+2] [Carboplatin] (first compound max 10 µM, 7x7, partner max 10 µM), the Bliss excess in assay [1] is -0.0576; in assay [2] it was -0.0516; in assay [3] it was 0.0173; in assay [4] it was -0.032; in [5], -0.0448; in [6] it was -0.0302. The “combination Emax” value was 0.58 in assay [7]; 0.609 in [8]; 0.996 in [9]; 0.851 in assay [10]; 0.254 in assay [11]; 0.708 in assay [12]. The “combination Emax” value in [13] stood at 0.458; in assay [14] it was 0.923; in [15] it was 0.45; in [16], 0.32; in assay [17], 0.659; in assay [18] it was 0.566. Moreover, the entries for the “combination Emax” value in assay [19] and in assay [20] were 0.544 and 0.76, respectively.
For the compound `C[C@@H]1COCCN1c1cc(C2([S@](C)(=N)=O)CC2)nc(-c2ccnc3[nH]ccc23)n1` [AZD6738] + Nc1ccn([C@@H]2O[C@H](CO)[C@@H](O)C2(F)F)c(=O)n1 [Gemcitabine] (first compound max 10 µM, 7x7, partner max 0.3 µM), the Bliss excess in assay [1] is -0.0143; in assay [2] it was 0.0715; in assay [3] it was 0.105; in assay [4], 0.0139; in assay [5], -0.0277; in assay [6] it was 0.0312. The “combination Emax” value in [7] came out at 0.79; in assay [8] it was 0.961; in assay [9], 1; in assay [10], 0.949; in assay [11] it was 0.67; in [12], 0.957. The “combination Emax” value in assay [13] was determined as 0.834; in assay [14], 0.945; in assay [15], 0.855; in [16], 0.528; in assay [17] it was 0.955; in assay [18], 0.873. The entries for the “combination Emax” value in assay [19] and in assay [20] were 0.83 and 1, respectively.
Take `Cc1cc2ncnn2cc1Nc1ncc2c(n1)n(C1CCOCC1)c(=O)n2C` [AZD7648] + COc1cc([C@@H]2c3cc4c(cc3[C@@H](O[C@@H]3O[C@@H]5CO[C@@H](C)O[C@H]5[C@H](O)[C@H]3O)[C@H]3COC(=O)[C@H]23)OCO4)cc(OC)c1O [Etoposide] (first compound max 10 µM, 7x7, partner max 10 µM): the Bliss excess in assay [1] was -0.0047; in assay [2], 0.0373; in [3] it was 0.116; in assay [4], 0.172; in assay [5], 0.157; in assay [6], 0.054. In addition, the “combination Emax” value in [7] was 0.666; in [8], 0.701; in assay [9], 0.979; in assay [10], 0.938; in assay [11] it was 0.603; in [12], 0.756. For the same compound, the “combination Emax” value in assay [13] came to 0.729; in assay [14], 0.854; in [15], 0.783; in assay [16] it was 0.558; in assay [17] it was 0.924; in assay [18], 0.524. In addition, the “combination Emax” value in [19] was found to be 0.827; in assay [20], 0.974.
